Three compounds from ChEMBL document CHEMBL3822384, “2-(3-Methoxyphenyl)quinazoline Derivatives: A New Class of Direct Constitutive Androstane Receptor (CAR) Agonists” (J Med Chem, 2016) can be followed below.

Molecules are shown by their SMILES. The source made the active and inactive calls. The rule behind the calls is not given here. A value given as a limit tells only on which side of the number the result lay.

One may read the IC50 as the concentration at which inhibition is half-maximal. For orientation: Emax means the greatest response seen or fitted, relative to the assay's reference. Usually EC50 stands for the concentration at which the effect is half-maximal. A high value points to a less potent agent.

In data set [1] the target is T1, Nuclear receptor subfamily 1 group I member 2 (Homo sapiens, UniProt O75469).
T1 sequence (O75469 whole entry): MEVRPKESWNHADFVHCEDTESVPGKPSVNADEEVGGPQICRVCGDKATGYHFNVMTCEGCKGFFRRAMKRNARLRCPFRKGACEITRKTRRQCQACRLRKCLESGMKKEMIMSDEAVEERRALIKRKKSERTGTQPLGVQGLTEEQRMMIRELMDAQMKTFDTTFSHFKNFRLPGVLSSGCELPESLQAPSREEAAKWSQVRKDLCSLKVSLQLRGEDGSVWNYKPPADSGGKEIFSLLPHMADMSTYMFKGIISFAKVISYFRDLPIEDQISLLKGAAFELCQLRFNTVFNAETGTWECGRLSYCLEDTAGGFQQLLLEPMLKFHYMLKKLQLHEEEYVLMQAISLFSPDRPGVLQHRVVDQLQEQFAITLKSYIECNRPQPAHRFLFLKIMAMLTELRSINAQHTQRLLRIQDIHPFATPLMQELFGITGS
Nature of the data set: Agonist activity at PXR in human primary hepatocytes assessed as upregulation of MDR/ABCB1 mRNA expression at 10 uM after 24 hrs by qRT-PCR method. The data set is classed as cell-based, Hepatocyte.

A further data set concerns the target T2, Cytochrome P450 2B6 (Homo sapiens, UniProt P20813).
T2 sequence (P20813 whole entry): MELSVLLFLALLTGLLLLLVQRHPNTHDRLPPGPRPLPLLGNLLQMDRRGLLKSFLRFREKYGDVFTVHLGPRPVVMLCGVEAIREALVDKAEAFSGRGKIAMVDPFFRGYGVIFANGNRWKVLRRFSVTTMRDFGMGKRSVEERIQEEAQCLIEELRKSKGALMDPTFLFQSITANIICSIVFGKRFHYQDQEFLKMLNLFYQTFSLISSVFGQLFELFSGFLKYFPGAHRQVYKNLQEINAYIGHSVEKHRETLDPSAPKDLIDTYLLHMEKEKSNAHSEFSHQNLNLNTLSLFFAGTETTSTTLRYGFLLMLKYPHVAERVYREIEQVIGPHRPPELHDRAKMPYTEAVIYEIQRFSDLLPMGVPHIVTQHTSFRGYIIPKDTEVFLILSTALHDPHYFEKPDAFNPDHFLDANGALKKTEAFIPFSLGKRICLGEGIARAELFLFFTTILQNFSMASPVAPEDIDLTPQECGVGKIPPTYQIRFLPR
Nature of the data set: Inhibition of recombinant human CYP2B6 by P450-Glo luminescence assay. The data set is classed as ADME.

The subject of the next data set is HepG2. Nature of the data set: Cytotoxicity against human HepG2 cells assessed as cell viability after 24 hrs by MTS assay. The data set is classed as cell-based. The note with it: hepg2, 24 h. A general note: Tetrazolium assays rely on reduction of a dye to a coloured formazan, in cell work by metabolically active cells.
For data set [2], the target named is T3, Vitamin D3 receptor (Homo sapiens) (UniProt P11473).
T3 sequence (whole entry): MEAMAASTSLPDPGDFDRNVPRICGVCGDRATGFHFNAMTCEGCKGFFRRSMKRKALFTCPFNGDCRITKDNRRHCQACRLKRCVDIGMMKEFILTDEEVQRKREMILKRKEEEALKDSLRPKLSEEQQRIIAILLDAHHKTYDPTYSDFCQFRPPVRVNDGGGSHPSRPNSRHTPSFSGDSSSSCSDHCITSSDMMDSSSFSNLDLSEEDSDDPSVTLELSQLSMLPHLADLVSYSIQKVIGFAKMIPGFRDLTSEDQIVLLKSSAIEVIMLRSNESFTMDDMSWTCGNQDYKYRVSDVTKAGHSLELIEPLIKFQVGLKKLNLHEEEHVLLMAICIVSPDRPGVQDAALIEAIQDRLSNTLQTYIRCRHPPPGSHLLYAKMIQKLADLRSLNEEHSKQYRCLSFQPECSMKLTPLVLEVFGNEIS
Nature of the data set: Agonist activity at VDR in human primary hepatocytes assessed as upregulation of CYP3A4 mRNA expression at 10 uM after 24 hrs by qRT-PCR method. The data set is classed as cell-based. Particulars: Hepatocyte.

Another data set addresses T4, PXR (NR1I2) (Homo sapiens, UniProt O75469).
T4 sequence (O75469 whole entry): T1 sequence (O75469 whole entry)
Nature of the data set: (§1) Agonist activity at PXR expressed in human HepG2 cells after 24 hrs by p3A4-luciferase reporter gene assay. The note with it: human, HepG2 cells expressing PXR. In general terms: In a reporter assay the amount or activity of a reporter protein is the signal.

The target in data set [3] is T1, Nuclear receptor subfamily 1 group I member 2. The description is as §1.
In data set [4] the target is T5, Nuclear receptor subfamily 1 group I member 3 (Homo sapiens, UniProt Q14994).
T5 sequence (Q14994 whole entry): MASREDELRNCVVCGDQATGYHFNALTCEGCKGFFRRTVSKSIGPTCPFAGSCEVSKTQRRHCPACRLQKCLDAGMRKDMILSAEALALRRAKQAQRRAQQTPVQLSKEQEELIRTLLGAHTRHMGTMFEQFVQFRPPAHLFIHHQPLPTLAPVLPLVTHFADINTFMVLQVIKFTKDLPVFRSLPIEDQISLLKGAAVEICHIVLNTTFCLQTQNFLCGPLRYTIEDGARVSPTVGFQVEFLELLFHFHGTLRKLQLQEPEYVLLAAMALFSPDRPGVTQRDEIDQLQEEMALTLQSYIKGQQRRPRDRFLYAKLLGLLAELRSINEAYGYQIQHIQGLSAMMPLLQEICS
Nature of the data set: Agonist activity at human CAR expressed in human HepG2 cells assessed as induction of CYP2B6 mRNA expression at 1 to 5 uM after 24 hrs by qRT-PCR method. The note with it: hepg2, 24 h. The data set is classed as cell-based.

Data set [5] deals with T5, Nuclear receptor subfamily 1 group I member 3. Nature of the data set: Agonist activity at human CAR expressed in human HepG2 cells assessed as induction of CYP2B6 mRNA expression at 1 to 10 uM after 24 hrs by qRT-PCR method. The data set is classed as cell-based. The note with it: hepg2, 24 h. (Real-time PCR tracks product formation cycle by cycle.)

`COc1cccc(-c2nc(SC)c3ccccc3n2)c1`: the figures for the Activity entry (in data set [1]; with HepG2) were “Active” and “Non-toxic”, respectively. Also, the IC50 on Cytochrome P450 2B6 was 31.8 µM. In addition, in data set [2], the result was Active. Besides, at PXR (NR1I2), the Emax at 24 h is > 250%. Further, the EC50 in data set [3] is > 3.5 µM.
`COc1cccc(-c2nc3ccccc3c(=S)[nH]2)c1`: the Activity entry in data set [1] is on record as “Active”; in data set [4] it was “Active”; in the data set with HepG2 it was “Non-toxic”. Also, the concentration for half-maximal inhibition (IC50) at Cytochrome P450 2B6 is 35.7 µM. In addition, in data set [2], the result was Active. For the same compound, on PXR (NR1I2), the Emax at 24 h was found to be 165%. In addition, in data set [3], the EC50 turned out to be 0.86 µM.
As for `COc1cccc(-c2nc(OC)c3ccccc3n2)c1`, the Activity result in data set [5] was “Active”; in data set [1], “Active”; with HepG2 it was “Non-toxic”. In addition, the IC50 at Cytochrome P450 2B6 came out at 36.2 µM. Also, the result in data set [2] was Active. For the same compound, the Emax at 24 h at PXR (NR1I2) is > 250%. Besides, in data set [3], the EC50 was > 3 µM.
